# Source: patent publication US20230324370A1, “A DNA-Based Voltmeter for Organelles” (The University of Chicago, priority 2020, published 2023)
# Columns and labels:
# [1] = tested on: lysosomes in HEK 293T cells; assay: In situ lysosomal membrane potential measurement with Voltair^IM, with and without pharmacological treatment; type: cell-based, Human; settings: for ΔVLys: HEK 293T
# [2] = tested on: trans Golgi network in HEK 293 cells expressing scFv-furin; assay: Organellar membrane potential measurement, trans Golgi network; type: cell-based, Human; settings: V-ATPase inhibition (bafilomycin A1 500 nM per FIG. 4)
# [3] = tested on: recycling endosomes in HEK 293T cells; assay: Organellar membrane potential measurement, recycling endosomes; type: cell-based, Human; settings: 500 nM bafilomycin A1
# [4] = tested on: endogenous scavenger receptor; assay: Competition assay of DNA nanodevice uptake in cell types expressing endogenous scavenger receptor; type: cell-based; settings: THP-1, BHK-21, HDF, RAW 264.7, T-47D, COS-7
# [5] = target: T1, human macrophage scavenger receptor (hMSR1) (Homo sapiens, UniProt P21757); assay: Competition assay of DNA device uptake with maleylated BSA; type: cell-based
# T1 construct: expressed in transfected cells; host or cells: HEK 293T
# T1 sequence (P21757 1-451): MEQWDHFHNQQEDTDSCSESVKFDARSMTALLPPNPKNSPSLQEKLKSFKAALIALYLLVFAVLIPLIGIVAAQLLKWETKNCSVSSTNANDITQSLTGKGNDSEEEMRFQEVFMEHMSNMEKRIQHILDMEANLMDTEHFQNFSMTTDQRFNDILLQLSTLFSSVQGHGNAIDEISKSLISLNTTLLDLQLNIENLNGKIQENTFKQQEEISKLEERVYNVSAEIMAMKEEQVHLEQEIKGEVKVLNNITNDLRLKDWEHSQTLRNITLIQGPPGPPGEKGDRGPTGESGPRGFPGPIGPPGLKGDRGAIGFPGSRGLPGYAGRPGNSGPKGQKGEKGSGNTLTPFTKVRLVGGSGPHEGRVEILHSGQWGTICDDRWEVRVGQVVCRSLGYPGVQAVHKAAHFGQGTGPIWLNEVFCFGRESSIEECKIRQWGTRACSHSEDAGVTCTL
# Description: Competition assay: HEK 293T cells transfected with hMSR1-CFP were washed with 1X PBS, pH 7.4 prior to labeling with the DNA device. Cells were incubated with 20 µM maleylated BSA (mBSA) for 15 min, followed by a 20 min pulse of 500 nM DNA device and 20 µM mBSA to allow internalization by receptor mediated endocytosis. Control cells were washed and pulsed for 20 mins in 500 nM DNA device without mBSA. Cells were then washed three times with 1× PBS and chased for 30 mins in complete DMEM media. Complete media was replaced with Opti-MEM solution (Thermofisher) and imaged by widefield microscopy for quantification and confocal microscopy for representative images. Whole cell intensities in the Atto647N channel were quantified for cells expressing hMSR1-CFP observed in CFP channel. The mean intensity from three different experiments were normalized against the no mBSA control, for n~50 cells.
# early endosomes = assay: Time-lapse imaging of early endosome membrane potential upon TRPML1 activation; type: cell-based; settings: ML-SA1
# [6] = tested on: cytosolic Ca^2+ in COS-7 cells; assay: Cytosolic calcium imaging with Fluo-4 AM upon ATP addition; type: cell-based, Monkey; settings: COS-7, 100 µM ATP
# lysosomes of COS-7 cells = assay: Time lapse imaging of lysosomal membrane potential upon ATP addition; type: cell-based, Monkey; settings: COS-7, 100 µM ATP
# Text: Time lapse Imaging: […] Image acquisition was briefly paused at indicated time for addition of chemicals (ML-SA1, Baf-A1, ATP or DMSO) to cells. To minimize bleaching, time-lapse imaging was done at single focal plane. Z-drift compensator module from IX83 was applied to minimize out of focus drift during time lapse imaging. The extracellular ATP induced cytosolic calcium increase was imaged by labeling COS-7 cells with cell permeable calcium sensitive dye Fluo4-AM ester. Time-lapse imaging of Fluo-4 labeled COS-7 cells were acquired using a 480/20 band pass excitation filter, 520/40 band pass emission filter and 89016 dichroic, at 1 s interval for 20 mins.
# [7] = in the presence of Torin-1 and trans-ned-19 1 µM
compound,measurement,setting,value
COc1ccc([C@H]2N[C@H](C(=O)O)Cc3c2[nH]c2ccccc32)cc1CN1CCN(c2ccccc2F)CC1 [trans-ned-19],VLys,[1]; [7],+80 mV
same,ΔVLys due to TPC2 channel inhibition,[1]; [7],35 mV
CO/C1=C\C(C)=C\[C@@H](C)[C@@H](O)[C@@H](C)C/C(C)=C/C=C/[C@H](OC)[C@@H]([C@@H](C)[C@@H](O)[C@H](C)[C@@]2(O)C[C@@H](O)[C@H](C)[C@@H](C(C)C)O2)OC1=O [bafilomycin A1],membrane potential remaining across the TGN after V-ATPase inhibition,[2],+75 mV
same,change of VRE upon V-ATPase inhibition,[3],no change
same,reduction of VLys from the resting membrane potential,"[1]; bafilomycin A1 500 nM, V-ATPase inhibition",~ 100 mV
maleylated BSA: a strong ligand for scavenger receptors,effect on DNA nanodevice uptake,[4],decreases uptake
same,effect on endocytosis of Voltair^PM,"[5]; CFP-hMSR1 transfected HEK 293T, 30eq. mBSA, 500 nM Voltair^PM, 30 mins",blocks endocytosis
same,effect on uptake of Voltair^IM,[5]; HEK 293T cells expressing hMSR1-CFP,efficiently competed out
CCC(=O)N1CCN(c2ccc(-n3c(=O)ccc4cnc5ccc(-c6cnc7ccccc7c6)cc5c43)cc2C(F)(F)F)CC1 [Torin-1],reduction of VLys from the resting VLys,"[1]; Torin-1 1 µM, mTORC1 inhibition",~60 mV
CC1CC(C)(C)N(C(=O)CN2C(=O)c3ccccc3C2=O)c2ccccc21 (stereo not shown) [ML-SA1],ΔVLys,"[1]; ML-SA1 20 µM, TRPML1 activator",90 mV
same,membrane potential in early endosomes (VEE) upon treatment,early endosomes,stayed constant
Nc1ncnc2c1ncn2[C@@H]1O[C@H](COP(=O)(O)OP(=O)(O)OP(=O)(O)O)[C@@H](O)[C@H]1O [ATP],time to maximum cytosolic Ca^2+ level after addition,[6],~ 5 seconds
same,acute hyperpolarization of the lysosomal membrane,lysosomes of COS-7 cells,+75 mV
same,duration of lysosomal hyperpolarization,lysosomes of COS-7 cells,~ 100 seconds
same,time from maximal cytosolic Ca^2+ elevation to lysosomal hyperpolarization,lysosomes of COS-7 cells,~ 80 seconds
O=c1[nH]c2cc(C(F)(F)F)ccc2n1-c1cc(C(F)(F)F)ccc1O [NS1619],ΔVLys,[1]; ML-SA1 as well as BK channel agonist NS1619,50 mV
